Entries after “also recorded” stand apart in the source; their conditions may differ.
Assays:
skin of normal adults = assay: Test for skin irritation property (closed patch test); format: in vivo, human; settings: closed patch test 24 hours, 20 adults
Protocol: In order to examine the skin irritation of the compound of formula (1), a patch test for the skin of normal adults was carried out. As the carrier, capryl caprylic triglyceride or the conventional O/W formulation was used, and twenty (20) adults per a group were tested for 24 hours.
The conventional O/W formulation used in the present experiment was prepared according to the following procedure.
Each of the aqueous part of Nos. 1–6 and the oily part of Nos. 7–13 as shown in the following Table 1 was heated to 75–80° C. to be thoroughly dissolved. The oily part was slowly added to the aqueous part and emulsification was performed for 5 minutes at 75–80° C. in a homomixer of 3000rpm. During the emulsification, the mixture was neutralized by the neutralizing agent of No. 14. After the first emulsification, the mixture was cooled, the retinal retaliate and fragrance of Nos. 15–16 were added at 50–55° C., and then the second emulsification was carried out for 3 minutes in a homomixer of 3000rpm. The mixture was cooled again to 27–30° C. to prepare the composition of O/W formulation.
From the experimental results, the irritation indexes were calculated according to the following Equation 1 and the results are represented in the following Table 2. Irritation index={Σ(Test Value×Number of Examinees Corresponding to the Test Value)/(Total Examinees×The Maximum Test Value)×100 Equation 1
Test Value +++: 5, ++: 4, +: 3, +−: 2, −:1
The degree of irritation was determined according to the following standards:
1.9 or less: Minute irritation, 2.0–2.9: Weak irritation, 3.0–3.9: Moderate irritation, 4.0 or more: Strong irritation

[1] = Photostability test (UV-A 356 nm, 1H NMR); format: physicochemical; parameters: key: 4 = No qualitative change in ^1H NMR spectrum; 3 = Minute noise but no qualitative change in ^1H NMR spectrum; 2 = Clear noise and some qualitative change in ^1H NMR spectrum; 1 = Qualitative confirmation is difficult in ^1H NMR spectrum; settings: room temperature
Protocol: In order to examine photostability of the compound of formula (1) compared with retinol, 10 mg of sample was irradiated by UV-A light (wavelength 356 nm) using a Spectroline (Model CM-10; Fluorescence analysis cabinet; Spectronics Corporation, Westbury, N.Y., USA) at certain intervals of time at room temperature.

RAR β = target: T1, RAR β (Homo sapiens, UniProt P10826); assay: Activity for RAR β (CAT reporter in HaCaT cells); format: cell-based; settings: 1 μM, CAT ELISA
T1 construct: expressed in transfected cells; host or cells: HaCaT
T1 sequence (P10826 1-455): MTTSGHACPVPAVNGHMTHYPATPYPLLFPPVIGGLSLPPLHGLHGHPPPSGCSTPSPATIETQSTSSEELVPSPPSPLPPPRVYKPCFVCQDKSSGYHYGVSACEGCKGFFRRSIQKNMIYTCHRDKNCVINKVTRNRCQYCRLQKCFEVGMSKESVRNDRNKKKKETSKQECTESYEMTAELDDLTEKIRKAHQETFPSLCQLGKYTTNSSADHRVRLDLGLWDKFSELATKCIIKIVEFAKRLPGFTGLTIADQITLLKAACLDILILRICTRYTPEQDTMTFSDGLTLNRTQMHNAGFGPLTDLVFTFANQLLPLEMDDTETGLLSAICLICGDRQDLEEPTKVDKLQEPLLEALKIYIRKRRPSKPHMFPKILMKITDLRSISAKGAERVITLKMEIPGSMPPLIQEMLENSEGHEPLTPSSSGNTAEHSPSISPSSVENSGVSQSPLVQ
Protocol: (§1) The effect of the retinol derivatives on the activity of RAR and RXR was examined as follows.
(§2) Experimental procedure: Recombinant gene of DR5-tk-CAT or DR1-tk-CAT comprising DR1 or DR5 as a response element of RAR/RXR, […] promoter, and CAT (chloramphenicol acetyl transferase) was suitably combined with a plasmid DNA that expresses RAR α, β, γ and cotransfected to HaCaT cell line, a skin cancer cell line, with Lipofectamin (GibcoBRL). Then, the cells were incubated in DMEM/10% FBS medium for 1 day, retinol derivative was added in a concentration of 1 μM, and the cells were incubated again for 1 day under the condition of 5% CO2 and 37° C. The cells were washed with phosphate-buffered salione (PBS). Proteins were extracted from each cell, the activity of β-galactosidase was assayed, and the amount of protein was measured to determine the transfection efficiency. Further, the degree of transcription for RAR or RXR was analyzed by CAT ELISA (Roche Molecular Biochemicals, Mannheim, Germany).

RAR γ = target: T2, RAR γ (Homo sapiens, UniProt P13631); assay: Activity for RAR γ (CAT reporter in HaCaT cells); format: cell-based; settings: 1 μM, CAT ELISA
T2 construct: expressed in transfected cells; host or cells: HaCaT
T2 sequence (P13631 1-454): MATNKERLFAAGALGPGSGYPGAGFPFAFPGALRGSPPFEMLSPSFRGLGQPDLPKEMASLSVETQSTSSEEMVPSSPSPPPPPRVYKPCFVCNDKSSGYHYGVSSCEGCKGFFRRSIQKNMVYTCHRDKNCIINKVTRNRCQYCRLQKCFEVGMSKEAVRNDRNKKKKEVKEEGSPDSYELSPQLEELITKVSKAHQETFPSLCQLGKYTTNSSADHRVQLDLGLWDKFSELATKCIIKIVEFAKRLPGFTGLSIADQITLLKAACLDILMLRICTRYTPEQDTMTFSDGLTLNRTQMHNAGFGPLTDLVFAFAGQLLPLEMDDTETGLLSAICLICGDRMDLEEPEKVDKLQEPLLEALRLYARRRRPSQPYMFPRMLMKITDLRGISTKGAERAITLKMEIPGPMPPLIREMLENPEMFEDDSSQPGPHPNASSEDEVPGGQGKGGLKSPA
Protocol: as §1, §2

[2] = 0.075% in C.C.T (capryl caprylic triglyceride)
[3] = Control = 1.0, listed as compound of formula (1)

Row | Structure (SMILES) | Irritation Index (skin of normal adults; [2]) | Degree of Irritation (skin of normal adults; 0.075% in C.C.T) | Degree of Irritation (skin of normal adults; 0.3% in C.C.T) | Irritation Index (skin of normal adults; 0.3% in C.C.T) | Degree of Irritation (skin of normal adults; 0.3% in O/W Formulation) | Irritation Index (skin of normal adults; 0.3% in O/W Formulation) | Degree of Irritation (skin of normal adults; 0.55% in C.C.T) | Irritation Index (skin of normal adults; 0.55% in C.C.T) | Photostability level ([1]; After 0 hour, 10 mg sample) | Photostability level ([1]; After 2 hours) | Photostability level ([1]; After 12 hours) | Photostability level ([1]; After 24 hours) | Photostability level ([1]; After 48 hours) | Relative activity against RAR β (RAR β; Control = 1.0) | Relative activity against RAR β (RAR β; [3]) | Relative activity against RAR γ (RAR γ; Control = 1.0) | Relative activity against RAR γ (RAR γ; [3])
1 | CC1=C(/C=C/C(C)=C/C=C/C(C)=C/COC(=O)/C=C(C)/C=C/C=C(C)/C=C/C2=C(C)CCCC2(C)C)C(C)(C)CCC1 [Compound of formula (1), Retinyl retinoate] | 1.3 | Minute irritation (1.9 or less: Minute irritation) | Minute irritation (1.9 or less: Minute irritation) | 1.3 | Weak irritation (2.0–2.9: Weak irritation) | 2.0 | Minute irritation (1.9 or less: Minute irritation) | 1.3 | 4 | 4 | 3 | 3 | 3 | 1.5 | lower activity than retinoic acid but higher one than retinol; also recorded: low activity | 1.1 | lower activity than retinoic acid but higher one than retinol; also recorded: low activity
2 | CC1=C(/C=C/C(C)=C/C=C/C(C)=C/CO)C(C)(C)CCC1 [Retinol] | 2.5 | Weak irritation (2.0–2.9: Weak irritation) | – | – | – | – | – | – | 4 | 3 | 2 | 1 | 1 | 1.3 | – | 0.9 | –
